Measurements published in article PMC9572773, “Effects of Extracts and Flavonoids from Drosera rotundifolia L. on Ciliary Beat Frequency and Murine Airway Smooth Muscle” (Molecules, 2022).
Values belong to the molecule of their own block, whether it stands above or below them.

What was measured:
PDE4D = target: T1, PDE4D (Homo sapiens, UniProt Q08499); assay: PDE4D inhibitor assay (fluorescence polarization, cell-free); format: biochemical; settings: for IC50: cell-free, duplicates, 1% DMSO, CI = confidence interval
T1 construct: purchased Biomol (Hamburg, Germany) #60345
Experimental: Assays were based on fluorescence polarization using fluorescein amidites-labeled cAMP and were performed according to the manufacturer’s instructions. Samples were recorded as duplicates in a 96-well plate containing equal amounts of DMSO (1%). […] The IC50 values were calculated by a fitting of sigmoidal dose–response curves (variable slope) with GraphPad Prism version 3.00 for Windows (GraphPad, San Diego, CA, USA).

[1] = tested on: ciliated tracheal epithelium cells; assay: Ciliary beat frequency (CBF) of murine tracheal slices; format: cell-based, C57BL/6N mice; settings: for CBFRatio (related to CBFBasal): mean ± SD
Experimental: Male and female C57BL/6N mice (Charles River, Sulzfeld, Germany, and own breeding at the Institute of Pharmaceutical and Medicinal Chemistry, University of Münster, Germany) were housed under standard conditions. Animal care followed the rules of German laws (Az. 53.5.32.7.1/MS-12668, Health and Veterinary Office Münster, Germany). The mice were sacrificed using CO2. Murine tracheal explants were placed in LHC-9 medium (Invitrogen, CA, USA), cut into 0.5 mm slices and stored at 37 °C and an atmosphere of 5% CO2. The medium was changed every 3 days. CBF was measured up to 7 days after dissection. Slices were placed in a 0.7 mL perfusion chamber at 37 °C and perfused with Krebs–Henseleit buffer (1 mL/min). The tissue bath was located at an inverted Nikon Eclipse Ti2 microscope (Nikon GmbH, Düsseldorf, Germany) with a 100× oil objective. Drosera dry extract (0.2 mg/mL) was solved in Krebs–Henseleit buffer containing 0.3% DMSO (DE). The amount of DMSO was not exceeding 0.3%; as for this concentration, no effects on CBF were reported. DFA was prepared as described above. […] 2″-O-Galloylhyperoside, ATP and salbutamol were solved without DMSO. In case DMSO was added, all test solutions of one experiment contained the same amount of DMSO. […] Videos were captured and analyzed by the SAVA software (Ammons Engineering, Clio, MI, USA). Ciliated cells exerted baseline frequencies in a range of 5 to 20 Hz, in agreement with the literature. Data were normalized to values of the last 5 min before changing to a test solution (CBFbasal), and effects on ciliary beating were expressed as a ratio (CBFRatio).

PDE1A = target: T2, PDE1A (Homo sapiens, UniProt P54750); assay: PDE1A inhibitor assay (fluorescence polarization, cell-free); format: biochemical; settings: for IC50: cell-free, duplicates, 1% DMSO, CI = confidence interval
T2 construct: purchased Biomol (Hamburg, Germany) #60310
Experimental: The activity of PDE4D and PDE1A was measured with assay kits #60345 and #60310 from Biomol (Hamburg, Germany). Assays were based on fluorescence polarization using fluorescein amidites-labeled cAMP and were performed according to the manufacturer’s instructions. Samples were recorded as duplicates in a 96-well plate containing equal amounts of DMSO (1%). The fluorescence polarization was measured at excitation wavelengths between 480 and 516 nm and emission wavelengths between 530 and 540 nm by using the plate reader CLARIOstar (BMG Labtech, Ortenberg, Germany). The IC50 values were calculated by a fitting of sigmoidal dose–response curves (variable slope) with GraphPad Prism version 3.00 for Windows (GraphPad, San Diego, CA, USA).

[2] = tested on: airway smooth muscle of mouse tracheal slices, acetylcholine-induced contraction; assay: ACh-induced contraction of mouse tracheal slices (tissue bath); format: cell-based, C57BL/6N mice
Description: Male and female C57BL/6N mice (Charles River, Sulzfeld, Germany, and own breeding at the Institute of Pharmaceutical and Medicinal Chemistry, University of Münster, Germany) were housed under standard conditions. Animal care followed the rules of German laws (Az. 53.5.32.7.1/MS-12668, Health and Veterinary Office Münster, Germany). The mice were sacrificed using CO2. A Mayflower horizontal tissue bath (Hugo Sachs Elektronik, Germany) was used to measure contractions. Murine tracheal slices of 3 mm were placed in the 5 mL tissue bath at a preload of 0.2 cN. Krebs–Henseleit buffer (37 °C) was continuously gassed (O2:CO2 95:5). Drosera dry extract (0.5 mg/mL) was solved in Krebs–Henseleit buffer containing 1 % DMSO (DE). DFA was obtained as described above. […] Control solutions contained equal amounts of DMSO depending on the respective test compound. Experiments were started after an equilibration time of 60 min. Tracheal tension was measured isometrically (force transducer F10 Type 375, amplifier TAM-A Type 705/1, evaluation software HSE ACAD 2.0, Harvard Apparatus GmbH, March-Hugstetten, Germany). […] Test solutions were added 10 min before the next ACh bolus. When using a high potassium solution (60 mM K^+), NaCl concentration was reduced to maintain osmolarity. At least 3 K^+-induced contractions (each 20 min) were averaged and taken as control contraction. The maximal contraction represents the highest value, while the plateau (plat.) was calculated in minutes 19–20.

guinea-pig ileum = tested on: guinea-pig ileum; parameters: method as in PMID 11933852; settings: 10 µM; cited from earlier work

T1 sequence (Q08499 303-809 limits assumed): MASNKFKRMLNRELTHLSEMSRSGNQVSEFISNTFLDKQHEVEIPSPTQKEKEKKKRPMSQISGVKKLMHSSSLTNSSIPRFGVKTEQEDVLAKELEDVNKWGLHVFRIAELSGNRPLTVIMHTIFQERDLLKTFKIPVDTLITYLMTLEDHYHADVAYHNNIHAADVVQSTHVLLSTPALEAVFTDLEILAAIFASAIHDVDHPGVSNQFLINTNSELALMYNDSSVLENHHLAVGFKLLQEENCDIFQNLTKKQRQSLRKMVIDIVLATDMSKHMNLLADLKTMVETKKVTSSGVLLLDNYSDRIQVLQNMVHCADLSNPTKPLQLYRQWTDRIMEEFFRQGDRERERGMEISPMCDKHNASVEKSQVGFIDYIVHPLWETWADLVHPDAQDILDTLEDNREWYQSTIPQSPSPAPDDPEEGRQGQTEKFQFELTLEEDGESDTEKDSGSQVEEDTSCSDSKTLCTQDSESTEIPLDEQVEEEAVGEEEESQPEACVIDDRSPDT
T2 sequence (P54750 whole entry): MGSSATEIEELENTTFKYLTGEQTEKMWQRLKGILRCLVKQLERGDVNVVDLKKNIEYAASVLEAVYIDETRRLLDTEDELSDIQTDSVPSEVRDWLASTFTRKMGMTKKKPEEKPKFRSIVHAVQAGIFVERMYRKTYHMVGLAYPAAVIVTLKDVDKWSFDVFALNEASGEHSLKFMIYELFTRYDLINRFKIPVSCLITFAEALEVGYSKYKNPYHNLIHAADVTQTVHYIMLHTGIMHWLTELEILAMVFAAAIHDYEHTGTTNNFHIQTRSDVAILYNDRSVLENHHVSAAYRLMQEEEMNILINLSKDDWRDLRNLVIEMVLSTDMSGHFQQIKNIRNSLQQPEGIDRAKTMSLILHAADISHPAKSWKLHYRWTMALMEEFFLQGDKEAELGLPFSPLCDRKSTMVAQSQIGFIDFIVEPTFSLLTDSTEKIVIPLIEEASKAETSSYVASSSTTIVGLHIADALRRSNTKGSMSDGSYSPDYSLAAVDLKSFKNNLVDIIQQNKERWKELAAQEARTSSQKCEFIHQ

IC50 (PDE4D): 1100 nM | IC50 (PDE1A): 3 µM
SMILES: O=C(O[C@H]1[C@H](Oc2c(-c3ccc(O)c(O)c3)oc3cc(O)cc(O)c3c2=O)O[C@H](CO)[C@H](O)[C@@H]1O)c1cc(O)c(O)c(O)c1 [2″-O-galloylhyperoside]
CBFRatio (related to CBFBasal) ([1]; 300 µM, minutes 10 to 15): 1.11 ± 0.04 | ACh-induced contraction, % of control ([2]; 500 µM, 10 min pretreatment, 100 µM ACh): 61 ± 21% | ACh-induced contraction compared with the effect at 500 µM ([2]; 750 and 1000 µM, 100 µM ACh): did not significantly differ

PDE4D activity (% of control without inhibitor) (PDE4D; 50 µM): 77 ± 6% | PDE4D activity (% of control without inhibitor) (PDE4D; 100 µM): 70 ± 2% | IC50 (PDE1A): 12 µM
SMILES: COCc1nc2c([nH]1)c(=O)n(C)c(=O)n2CC(C)C [8MmIBMX, 8-methoxymethyl-IBMX]
increase of CBF on average ([1]; 100 µM): 20% | CBFRatio (related to CBFBasal) ([1]; 100 µM, minutes 10 to 15): 1.2 ± 0.1

SMILES: Nc1ncnc2c1ncn2[C@@H]1O[C@H](COP(=O)(O)OP(=O)(O)OP(=O)(O)O)[C@@H](O)[C@H]1O [ATP]
CBFRatio (related to CBFBasal) ([1]; 30 µM, minutes 10 to 15): 1.4 ± 0.2

IC50 (PDE4D): 3000 nM
SMILES: O=c1c(O[C@@H]2O[C@H](CO)[C@H](O)[C@H](O)[C@H]2O)c(-c2ccc(O)c(O)c2)oc2cc(O)cc(O)c12 [Hyperoside, hyperoside]
ACh-mediated contraction force, % of control ([2]; 50 to 750 µM, all concentrations tested, 100 µM ACh): approximately 80% | maximal reduction of ACh-induced contraction force ([2]; maximal effect): 20–25%

IC50 (PDE4D): 2000 nM | IC50 (PDE1A): 4 µM
SMILES: O=c1c(O)c(-c2ccc(O)c(O)c2)oc2cc(O)cc(O)c12 [quercetin]
CBFRatio (related to CBFBasal) ([1]; 30 µM, minutes 10 to 15): 1.2 ± 0.2 | inhibition of carbachol-induced contractions (guinea-pig ileum): more than 50% | abrogation of ACh-induced contraction on ASM ([2]; 10 µM): failed to abrogate | activity at 25 µM ([2]; Mus musculus, 25 µM, 10 min pretreatment, read-out: effect of 100 µM ACh (contraction force, % of control)): 74 ± 11% | activity at 50 µM ([2]; Mus musculus, 50 µM, 10 min pretreatment, read-out: effect of 100 µM ACh (contraction force, % of control)): 63 ± 7% | activity at 100 µM ([2]; Mus musculus, 100 µM, 10 min pretreatment, read-out: effect of 100 µM ACh (contraction force, % of control)): 21 ± 2%

remaining activity at 100 µM (PDE1A; 100 µM, read-out: PDE1A activity (% of control without inhibitor)): 98.2 ± 0.6% | remaining activity at 300 µM (PDE1A; 300 µM, read-out: PDE1A activity (% of control without inhibitor)): 92 ± 2%
SMILES: COc1ccc(C2CNC(=O)C2)cc1OC1CCCC1 (stereo not drawn) [rolipram]
increase of CBF on average ([1]; 30 µM): 20% | CBFRatio (related to CBFBasal) ([1]; 30 µM, minutes 10 to 15): 1.2 ± 0.2

SMILES: CC(C)(C)NCC(O)c1ccc(O)c(CO)c1 (stereo not drawn) [salbutamol]
CBFRatio (related to CBFBasal) ([1]; 50 µM, minutes 5 to 10): 1.4 ± 0.3
